Assay results reported in patent US9981938B2, “Quaternary ammonium alkyl esters as stable prodrugs” (ALLERGAN, INC., priority 2014, dated 2018).

Experiment: Stability of compounds in aqueous solution
Type: physicochemical
Conditions: compound dissolved in aqueous solution, in %; for stability, 25° C./ 7 days: maintained at 25° C. for 7 days; for stability, 25° C./ 14 days: maintained at 25° C. for 14 days; for stability, 40° C./ 7 days: maintained at 40° C. for 7 days
Description: In some embodiments the stability of the compound is such that, when stored in an aqueous solution at 25° C. for 7 days or 14 days, at least about 70%, at least about 80%, at least about 90%, at least about 95%, at least about 97%, at least about 99% of the original compound, and up to about 100% of the original compound remains in the solution. In some embodiments, the stability of the compound is such that at least about 70%, at least about 80%, at least about 90%, at least about 95%, at least about 97%, at least about 99% of the original compound, and up to about 100% of original compound remains after 7 days of storage in an aqueous solution at 40° C.
The following Table 1 depicts various embodiments indicating the stability of compounds depicted by their respective structures in the table. The compounds were dissolved in an aqueous solution, and maintained at the indicated temperatures, for 7 to 14 days, as indicated.

| Structure (SMILES) | stability, 25° C./ 7 days | stability, 25° C./ 14 days | stability, 40° C./ 7 days |
| --- | --- | --- | --- |
| CN(C)c1ccc(OC(=O)c2ccc(CCC[C@@H]3[C@@H](CCc4cc(Cl)cc(Cl)c4)[C@H](O)C[C@H]3Cl)s2)cc1 [Compound 4, 5-(3-{(1R, 2R, 3R, 5R)-5-Chloro-2-[2-(3,5-dichlorophenyl)ethyl]-3-hydroxycyclopentyl}-propyl)thiophene-2-carboxylic acid 4-dimethylaminophenyl ester] | 98.7 | 100.2 | 96.0 |
| O=C(Oc1ccc(CN2CCOCC2)cc1)c1ccc(CCC[C@@H]2[C@@H](CCc3cc(Cl)cc(Cl)c3)[C@H](O)C[C@H]2Cl)s1 [Compound 3, 5-(3-{(1R, 2R, 3R, 5R)-5-Chloro-2-[2-(3,5-dichlorophenyl)ethyl]-3-hydroxycyclopentyl}-propyl)thiophene-2-carboxylic acid 4-morpholin-4-ylmethyl phenyl ester] | 97.3 | 97.3 | 91.7 |
| CCN(CC)CCOC(=O)c1ccc(CCC[C@@H]2[C@@H](CCc3cc(Cl)cc(Cl)c3)[C@H](O)C[C@H]2Cl)s1 [Compound 8, 5-(3-{(1R, 2R, 3R, 5R)-5-Chloro-2-[2-(3,5-dichlorophenyl)ethyl]-3-hydroxycyclopentyl}-propyl)thiophene-2-carboxylic acid, 2-diethylaminoethyl ester] | 95.8 | 84.6 | 79.1 |

Further lines, results first:

| stability, 25° C./ 7 days | stability, 25° C./ 14 days | stability, 40° C./ 7 days | Structure (SMILES) |
| --- | --- | --- | --- |
| 98.5 | 95.4 | 89.3 | CC(CCN1CCOCC1)OC(=O)c1ccc(CCC[C@@H]2[C@@H](CCc3cc(Cl)cc(Cl)c3)[C@H](O)C[C@H]2Cl)s1 (stereo partly drawn) [Compound 5, 5-(3-{(1R, 2R, 3R, 5R)-5-Chloro-2-[2-(3,5-dichlorophenyl)ethyl]-3-hydroxycyclopentyl}propyl)thiophene-2-carboxylic acid, 1-methyl-3-morpholin-4-yl propyl ester] |
| 100.5 | 101.1 | 101.8 | CC[N+](C)(CC)CCCOC(=O)c1ccc(CCC[C@@H]2[C@@H](CCc3cc(Cl)cc(Cl)c3)[C@H](O)C[C@H]2Cl)s1 [Compound 9, {3-[5-(3-{(1R, 2R, 3R, 5R)-5-Chloro-2-[2-(3,5-dichlorophenyl)ethyl]-3-hydroxycyclopentyl}-propyl)thiophene-2-carbonyloxy]propyl}diethyl methyl ammonium iodide] |
| 94.3 | 78.5 | 70.3 | CC(CN(C)C)OC(=O)c1ccc(CCC[C@@H]2[C@@H](CCc3cc(Cl)cc(Cl)c3)[C@H](O)C[C@H]2Cl)s1 (stereo partly drawn) [Compound 7, 5-(3-{(1R, 2R, 3R, 5R)-5-Chloro-2-[2-(3,5-dichlorophenyl)ethyl]-3-hydroxycyclopentyl}propyl)thiophene-2-carboxylic acid, 2-dimethylamino-1-methyl ethyl ester] |
| 103.0 | 102.9 | 98.0 | O=C(OCCCN1CCOCC1)c1ccc(CCC[C@@H]2[C@@H](CCc3cc(Cl)cc(Cl)c3)[C@H](O)C[C@H]2Cl)s1 [Compound 6, 5-(3-{(1R, 2R, 3R, 5R)-5-Chloro-2-[2-(3,5-dichlorophenyl)ethyl]-3-hydroxycyclopentyl}propyl)thiophene-2-carboxylic acid, 3-morpholin-4-yl propyl ester] |
| 96.4 | 95.2 | 78.0 | CN(C)Cc1ccc(OC(=O)c2ccc(CCC[C@@H]3[C@@H](CCc4cc(Cl)cc(Cl)c4)[C@H](O)C[C@H]3Cl)s2)cc1 [Compound 2, 5-(3-{(1R, 2R, 3R, 5R)-5-Chloro-2-[2-(3,5-dichlorophenyl)ethyl]-3-hydroxycyclopentyl}-propyl)thiophene-2-carboxylic acid 4-dimethylaminomethyl phenyl ester] |
